Target: T1, human M1 receptor (hCHRM1) (Homo sapiens, UniProt P11229)
T1 construct: expressed in transfected cells
T1 sequence (P11229 1-460): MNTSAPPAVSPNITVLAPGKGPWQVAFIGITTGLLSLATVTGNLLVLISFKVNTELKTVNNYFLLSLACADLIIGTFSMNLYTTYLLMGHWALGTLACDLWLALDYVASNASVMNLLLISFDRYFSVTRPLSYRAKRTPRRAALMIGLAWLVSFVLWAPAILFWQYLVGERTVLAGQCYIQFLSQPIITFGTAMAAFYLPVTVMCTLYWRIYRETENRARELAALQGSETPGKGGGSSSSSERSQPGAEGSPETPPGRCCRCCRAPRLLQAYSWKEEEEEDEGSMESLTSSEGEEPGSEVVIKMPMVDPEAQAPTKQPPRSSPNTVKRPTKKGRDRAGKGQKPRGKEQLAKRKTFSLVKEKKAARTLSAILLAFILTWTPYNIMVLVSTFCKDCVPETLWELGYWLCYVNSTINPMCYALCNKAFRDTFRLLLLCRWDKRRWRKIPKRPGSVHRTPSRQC
Experiment: Measurement of M1 receptor positive allosteric modulator (M1PAM) activity, calcium fluorescence (FLIPRtetra) with acetylcholine at EC20
Type: cell-based
Settings: for activity (%) at 10 μM: 10 μM test compound, 100% = acetylcholine 1 μM, 0% = DMSO, acetylcholine at EC20; for EC50: inflection point of concentration-dependent curve, CHO-K1 cells expressing hCHRM1, acetylcholine at EC20 (final 0.6-0.8 nM), read-out: IP value
Procedure: The activity of a test compound in the presence of acetylcholine at EC20 concentration (final concentration 0.6-0.8 nM), which affords an action corresponding to about 20% of the maximum activity, was measured as PAM activity. The method is as follows. CHO-K1 cells stably expressing a human M1 receptor (hCHRM1) were plated on a 384-well black clear bottom plate (BD Falcon) at 5,000 cells/well, and cultured in an incubator at 37° C., 5% CO2 for 1 day. The medium in the cell plate was removed, and assay buffer A (Recording medium (DOJINDO LABORATORIES), 0.1% BSA (Wako Pure Chemical Industries, Ltd.), 2.5 μg/mL Fluo-4 AM (DOJINDO LABORATORIES), 0.08% Pluronic F127 (DOJINDO LABORATORIES), 1.25 mM probenecid (DOJINDO LABORATORIES)) containing a calcium indicator was added at 30 μL/well. The cells were left standing in the incubator at 37° C., 5% CO2 for 30 min, and further left standing at room temperature for 30 min. A test compound prepared by diluting with assay buffer B (HBSS (Invitrogen), 20 mM HEPES (Invitrogen), 0.1% BSA) containing 2.4-3.2 nM acetylcholine was added at 10 μL/well, and the fluorescence was measured by FLIPRtetra (Molecular Devices) for 1 min every 1 second. With the definition that the amount of change in the fluorescence on addition of acetylcholine (final concentration 1 μM) is 100% and that on addition of DMSO instead of a test compound is 0%, the activity (%) of the test compound was calculated, and the inflection point in the concentration-dependent curve of the test compound was calculated as IP values.

SMILES | activity (%) at 10 μM | EC50
Cc1c(Cc2ccc(C#N)cc2F)cc2c(c1C)CN([C@H]1CCC[C@@H]1O)C2=O [Example 125, 3-fluoro-4-((2-((1S,2S)-2-hydroxycyclopentyl)-6,7-dimethyl-3-oxo-2,3-dihydro-1H-isoindol-5-yl)benzyl)benzonitrile] | 93% | 73 nM
Cc1cc2c(cc1Cc1ccc(-c3cn(C)nn3)cc1F)C(=O)N([C@H]1CCC[C@@H]1O)C2 (racemic) [Example 53, rac-6-(2-fluoro-4-(1-methyl-1H-1,2,3-triazol-4-yl)benzyl)-2-(trans-2-hydroxycyclopentyl)-5-methylisoindolin-1-one] | 103% | 28 nM
CCc1cc2c(cc1Cc1ccc(-n3cccn3)cc1)C(=O)N(CC(C)(C)O)C2 [Example 129, 5-ethyl-2-(2-hydroxy-2-methylpropyl)-6-(4-(1H-pyrazol-1-yl)benzyl)isoindolin-1-one] | 100% | 53 nM
Cc1cc2c(cc1Cc1ccc(-c3cn(C)nn3)cc1F)C(=O)N(CC1CCCO1)C2 (centres unmarked) [Example 54, 6-(2-fluoro-4-(1-methyl-1H-1,2,3-triazol-4-yl)benzyl)-5-methyl-2-(tetrahydrofuran-2-ylmethyl)isoindolin-1-one] | 92% | 37 nM
Cc1c(Cc2ccc(-c3ccn(C)n3)cc2)cc2c(c1C)CN(CC(C)(C)O)C2=O [Example 114, 2-(2-hydroxy-2-methylpropyl)-4,5-dimethyl-6-(4-(1-methyl-1H-pyrazol-3-yl)benzyl)isoindolin-1-one] | 96% | 15 nM
Cc1c(Cc2ccc(-c3cnn(C)c3)cc2)cc2c(c1C)CN(CC1CCCO1)C2=O (centres unmarked) [Example 84, 4,5-dimethyl-6-(4-(1-methyl-1H-pyrazol-4-yl)benzyl)-2-(tetrahydrofuran-2-ylmethyl)isoindolin-1-one] | 104% | 52 nM
CCc1cc2c(cc1Cc1ccc(OC)cc1)C(=O)N([C@H]1COCC[C@@H]1O)C2 [Example 148, 5-ethyl-2-[(3S,4S)-4-hydroxytetrahydro-2H-pyran-3-yl]-6-(4-methoxybenzyl)-2,3-dihydro-1H-isoindol-1-one] | 89% | 63 nM
Cc1cc2c(cc1Cc1ccc(-c3ccn(C)n3)nc1)C(=O)N([C@H]1CCC[C@@H]1O)C2 (racemic) [Example 43, rac-2-(trans-2-hydroxycyclopentyl)-5-methyl-6-((6-(1-methyl-1H-pyrazol-3-yl)pyridin-3-yl)methyl)isoindolin-1-one] | 110% | 98 nM
CNC(=O)c1ccc(Cc2cc3c(c(C)c2C)CN(C[C@@H]2CCCO2)C3=O)cc1F [Example 139, 4-((6,7-dimethyl-3-oxo-2-((2S)-tetrahydrofuran-2-ylmethyl)-2,3-dihydro-1H-isoindol-5-yl)methyl)-2-fluoro-N-methylbenzamide] | 102% | 14 nM
CNC(=O)c1ccc(Cc2cc3c(c(C)c2C)CN(CC(C)(C)O)C3=O)cc1F [Example 138, 2-fluoro-4-((2-(2-hydroxy-2-methylpropyl)-6,7-dimethyl-3-oxo-2,3-dihydro-1H-isoindol-5-yl)methyl)-N-methylbenzamide] | 106% | 25 nM

Other lines, results leading:

activity (%) at 10 μM | EC50 | SMILES
91% | 47 nM | COc1ccc(Cc2cc3c(c(Cl)c2C)CN([C@H]2CCC[C@@H]2O)C3=O)cc1 [Example 152, 4-chloro-2-((1S,2S)-2-hydroxycyclopentyl)-6-(4-methoxybenzyl)-5-methylisoindolin-1-one]
103% | 95 nM | O=C1c2cc(Cc3ccc(-n4cccn4)cc3)c(C3CC3)cc2CN1CC1CCCO1 (centres unmarked) [Example 62, 5-cyclopropyl-6-(4-(1H-pyrazol-1-yl)benzyl)-2-(tetrahydrofuran-2-ylmethyl)isoindolin-1-one]
105% | 13 nM | Cc1c(C#N)c(Cc2ccc(-n3cccn3)cc2)cc2c1CN([C@H]1CCCC[C@@H]1O)C2=O (racemic) [Example 11, rac-2-(trans-2-hydroxycyclohexyl)-4-methyl-1-oxo-6-(4-(1H-pyrazol-1-yl)benzyl)isoindoline-5-carbonitrile]
91% | 60 nM | COc1c(Cc2ccc(-n3cccn3)cc2)cc2c(c1Cl)CN([C@H]1CCC[C@@H]1O)C2=O (racemic) [Example 92, rac-4-chloro-2-(trans-2-hydroxycyclopentyl)-5-methoxy-6-(4-(1H-pyrazol-1-yl)benzyl)isoindolin-1-one]
99% | 5.6 nM | Cc1cc2c(cc1Cc1ccc(-n3cccn3)cc1)C(=O)N([C@H]1CCCC[C@@H]1O)C2 (racemic) [Example 32, rac-2-(trans-2-hydroxycyclohexyl)-5-methyl-6-(4-(1H-pyrazol-1-yl)benzyl)isoindolin-1-one]
89% | 14 nM | COc1ccc(Cc2cc3c(c(F)c2C)CN([C@H]2COCC[C@@H]2O)C3=O)cc1 [Example 150, 4-fluoro-2-[(3S,4S)-4-hydroxytetrahydro-2H-pyran-3-yl]-6-(4-methoxybenzyl)-5-methyl-2,3-dihydro-1H-isoindol-1-one]
102% | 9.5 nM | Cc1c(Cc2ccc(-n3cccn3)cc2)cc2c(c1C)CN([C@H]1CCCC[C@@H]1O)C2=O (racemic) [Example 29, rac-2-(trans-2-hydroxycyclohexyl)-4,5-dimethyl-6-(4-(1H-pyrazol-1-yl)benzyl)isoindolin-1-one]
94% | 2.2 nM | Cc1c(Cc2ccc(-n3cccn3)cc2)cc2c(c1Cl)CN([C@H]1COCC[C@@H]1O)C2=O [Example 130, 4-chloro-2-[(3S,4S)-4-hydroxytetrahydro-2H-pyran-3-yl]-5-methyl-6-[4-(1H-pyrazol-1-yl)benzyl]-2,3-dihydro-1H-isoindol-1-one]
103% | 36 nM | COc1ccc(Cc2cc3c(c(C)c2C)CN([C@H]2COCC[C@@H]2O)C3=O)cc1 (racemic) [Example 165, rac-2-(trans-4-hydroxytetrahydro-2H-pyran-3-yl)-6-(4-methoxybenzyl)-4,5-dimethyl-2,3-dihydro-1H-isoindol-1-one]
94% | 32 nM | COc1ccc(Cc2cc3c(c(F)c2OC)CN([C@H]2CCCC[C@@H]2O)C3=O)cc1 [Example 161, 4-fluoro-2-((1S,2S)-2-hydroxycyclohexyl)-5-methoxy-6-(4-methoxybenzyl)isoindol-1-one]
93% | 2 nM | Cc1c(Cc2ccc(-c3ccn(C)n3)cc2)cc2c(c1F)CN([C@H]1COCC[C@@H]1O)C2=O [Example 140, 4-fluoro-2-[(3S,4S)-4-hydroxytetrahydro-2H-pyran-3-yl]-5-methyl-6-[4-(1-methyl-1H-pyrazol-3-yl)benzyl]-2,3-dihydro-1H-isoindol-1-one]
96% | 5.3 nM | COc1c(Cc2ccc(-n3cccn3)cc2)cc2c(c1F)CN([C@H]1CCCC[C@@H]1O)C2=O (racemic) [Example 97, rac-4-fluoro-2-(trans-2-hydroxycyclohexyl)-5-methoxy-6-(4-(1H-pyrazol-1-yl)benzyl)isoindolin-1-one]
111% | 750 nM | Cn1cc(-c2ccc(Cc3ccc4c(c3)C(=O)N([C@H]3CCCC[C@@H]3O)C4)cn2)cn1 (racemic) [Example 1, rac-2-(trans-2-hydroxycyclohexyl)-6-((6-(1-methyl-1H-pyrazol-4-yl)pyridin-3-yl)methyl)isoindolin-1-one]
97% | 23 nM | Cn1cc(-c2ccc(Cc3cc4c(cc3Cl)CN([C@H]3CCCC[C@@H]3O)C4=O)cc2)cn1 (racemic) [Example 75, rac-5-chloro-2-(trans-2-hydroxycyclohexyl)-6-(4-(1-methyl-1H-pyrazol-4-yl)benzyl)isoindolin-1-one]
101% | 98 nM | Cc1cc2c(cc1Cc1ccc(-c3cn(C)nc3C)cc1)C(=O)N([C@H]1CCC[C@@H]1O)C2 (racemic) [Example 55, rac-6-(4-(1,3-dimethyl-1H-pyrazol-4-yl)benzyl)-2-(trans-2-hydroxycyclopentyl)-5-methylisoindolin-1-one]

— US9315458B2, “Nitrogen-containing heterocyclic compound” (Takeda Pharmaceutical Company Limited, priority 2014, dated 2016)
